The nature of the first series: logP(HCOOH) reported with HPLC/MS. To be noted: HCOOH (formic acid), logP(HCOOH), HPLC/MS.
Broadly, the chromatographic logP is lipophilicity estimated from chromatographic retention. Low readings indicate a more hydrophilic compound, high ones a more lipophilic compound. The compound `Cn1nnnc1C(=NOCc1csc(C#CCOCc2ccccc2)n1)c1ccccc1` [Example 263, N-({2-[3-(benzyloxy)prop-1-yn-1-yl]-1,3-thiazol-4-yl}methoxy)-1-(1-methyl-1H-tetrazol-5-yl)-1-phenylmethanimine] came in with a chromatographic logP of 4.04.
For the compound `Cc1cccc(NC(=O)C(C)(C)C)n1` [2,2-dimethyl-N-(6-methylpyridin-2-yl)propanamide], the chromatographic logP came to 1.2.
For the compound `CSc1cccc(C(=NO)c2nnnn2C)c1` [N-hydroxy-1-[3-(methylsulfanyl)phenyl]-1-(1-methyl-1H-tetrazol-5-yl)methanimine], the chromatographic logP was 1.98.
For `CC(C)(C)OC(=O)N(CCC1CCCCC1)c1cccc(CBr)n1` [tert-butyl [6-(bromomethyl)pyridin-2-yl](2-cyclohexylethyl)carbamate], the chromatographic logP was determined as 6.79.
In the case of `CN(C)c1cccc(C(=NOCc2cccc(N3C(=O)c4ccccc4C3=O)n2)c2nnnn2C)c1` [2-(6-{[({[3-(dimethylamino)phenyl](1-methyl-1H-tetrazol-5-yl)methylene}amino)oxy]methyl}pyridin-2-yl)-1H-isoindole-1,3(2H)-dione], the chromatographic logP was 3.17.
On the same count and under the same terms, the value for `Cc1cccc(NC(=O)C(C)(C)C)[n+]1[O-]` [2,2-dimethyl-N-(6-methyl-1-oxidopyridin-2-yl)propanamide] was 1.5; that for `Cc1sc(Br)nc1CO` [(2-bromo-5-methyl-1,3-thiazol-4-yl)methanol] was 1.1.

Still in this series, the particulars now being: HPLC/MS.
As for `COC(=O)c1nc(Br)sc1C` [methyl 2-bromo-5-methyl-1,3-thiazole-4-carboxylate], the chromatographic logP came out at 1.84.

The same series, now with this note: formic acid (HCOOH), logP(HCOOH), HPLC/MS.
`Cn1nnnc1C(=NOCc1nc(Br)ccc1F)c1ccccc1` [Example 96, N-[(6-bromo-3-fluoro-pyridin-2-yl)methoxy]-1-(1-methyl-1H-tetrazol-5-yl)-1-phenylmethanimine] showed a chromatographic logP of 3.27.

Still in this series, the particulars now being: logP(HCOOH), HPLC/MS.
`CC(C)(C)OC(=O)Nc1cccc(CO)n1` [tert-butyl [6-(hydroxymethyl)pyridin-2-yl]carbamate] had a chromatographic logP of 1.14.
`CON(C)C(=O)c1cccc(SC)c1` [N-methoxy-N-methyl-3-(methylsulfanyl)benzamide] came in with a chromatographic logP of 1.89.

The same series, now with this note: method [a]: HPLC on reversed phase columns, pH 2.3 with 0.1% phosphoric acid and acetonitrile as eluent.
On to `Cn1nnnc1C(=NOCc1cccc(C=NN=CC2CC=CCC2)n1)c1ccccc1` (stereo not drawn) [Example 201], for which the log p is 4.16^[a].
Regarding `Cn1nnnc1C(=NOCc1cccc(C(O)CCc2ccccc2)n1)c1ccccc1` (stereo not drawn) [Example 176], the log p is 3.35^[a].
Same read-out and setting: next, `Cn1nnnc1C(=NOCc1cccc(NCC2CC2)n1)c1ccccc1` [Example 144]: 1.75^[a].
Still for that read-out and setting: next, `Cn1nnnc1C(=NOCc1cccc(NCCCCC2CCCCC2)n1)c1ccccc1` [Example 180]: 3.55^[a]; `Cn1nnnc1C(=NOCc1cccc(NCC2CCC2)n1)c1ccccc1` [Example 178]: 1.98^[a].

The series is the same for the next values; noted with them: method [b]: LC-MS at pH 2.7, 0.1% formic acid in water and acetonitrile, linear gradient 10% to 95% acetonitrile.
As to `Cn1nnnc1C(=NOCc1cccc(CNC(=O)C(C)(C)C)n1)c1ccccc1` [Example 55], the log p was 2.58^[b].
With `C=CCNC(=S)Nc1cccc(CON=C(c2ccccc2)n2nnnc2C)n1` [Example 11], the log p is 3.09^[b].
The same measure, in the same setting: the value for `Cn1nnnc1C(=NOCc1cccc(C#CCC2CCC2)n1)c1ccccc1` [Example 111] was 4.39^[b].
Same read-out and setting: next, `CC(C)C(C)NC(=O)c1cccc(CON=C(c2ccccc2)c2nnnn2C)n1` (stereo not drawn) [Example 75]: 3.44^[b]; `Cn1nnnc1C(=NOCc1nc(C#CCCCCl)sc1Cl)c1ccccc1` [Example 121]: 4.51^[b]; `COc1ccc(CON=C(c2ccccc2)c2nnnn2C)nc1C#CCC1CCCC1` [Example 128]: 4.46^[b].
As to `Cn1nnnc1C(=NOCc1nc(C#CC2CCCC2)sc1Cl)c1ccccc1` [Example 116], the log p is 5.31^[b].
On to `CCCCCOC(=O)NCc1cccc(CON=C(c2ccccc2)c2nnnn2C)n1` [Example 60], for which the log p was 3.48^[b].
With `COC(=O)c1cccc(CON=C(c2ccccc2)n2nnnc2C)n1` [Example 14], the log p was 2.47^[b].
In the case of `Cc1nnnn1C(=NOCc1cccc(NC(=S)Nc2ccccc2)n1)c1ccccc1` [Example 5], the log p was 3.31^[b].
On to `CC(C)CCC#Cc1ccc(F)c(CON=C(c2ccccc2)c2nnnn2C)n1` [Example 101], for which the log p was 3.13^[b].
Take `CCCCCCCCNC(=S)Nc1cccc(CON=C(c2ccccc2)n2nnnc2C)n1` [Example 6]: the log p was 4.97^[b].
As for `Cn1nnnc1C(=NOCc1nc(C#CCCCc2ccccc2)sc1Cl)c1ccccc1` [Example 123], the log p was 5.56^[b].
As for `CN(C)C(=O)c1cccc(CON=C(c2ccccc2)c2nnnn2C)n1` [Example 77], the log p was 2.04^[b].
With `CCSCC#Cc1ccc(F)c(CON=C(c2ccccc2)c2nnnn2C)n1` [Example 102], the log p is 3.85^[b].

Staying with this series, now noted: method [b]: LC-MS at pH 2.7 with 0.1% formic acid in water and acetonitrile (0.1% formic acid), linear gradient 10% to 95% acetonitrile.
With `Cn1nnnc1C(=NOCc1cccc(NC2CC3CCC2C3)n1)c1ccccc1` (stereo not drawn) [Example 300], the log p is 2.45^[b].
The same measure, in the same setting: next, `Cn1nnnc1C(=NOCc1cccc(NC(=O)SC(C)(C)C)n1)c1ccccc1` [Example 309]: 4.19^[b]; `Cn1nnnc1C(=NOCc1cccc(N(OCCc2ccccc2)C(=O)OC(C)(C)C)n1)c1ccccc1` [Example 281]: 4.89^[b].
Take `CCCCON(C(=O)OC(C)(C)C)c1cccc(CON=C(c2ccccc2)c2nnnn2C)n1` [Example 280]: the log p was 4.75^[b].
The same measure, in the same setting: next, `Cn1nnnc1C(=NOCc1cccc(NOCCc2ccccc2)n1)c1ccccc1` [Example 287]: 3.69^[b]; `Cn1nnnc1C(=NOCc1csc(C#Cc2ccccc2C(F)(F)F)n1)c1ccccc1` [Example 267]: 4.51^[b]; `Cn1nnnc1C(=NOCc1cccc(NCC2CC2)n1)c1cccc(F)c1` [Example 290]: 1.98^[b].

Staying with this series, now noted: method [b]: LC-MS, pH 2.7 with 0.1% formic acid in water and acetonitrile (0.1% formic acid), linear gradient 10% to 95% acetonitrile.
On to `Cn1nnnc1C(=NOCc1csc(C#Cc2ccc3ccccc3c2)n1)c1ccccc1` [Example 194], for which the log p was 4.92^[b].
For the compound `Cc1sc(C#CCC2CCCCC2)nc1CON=C(c1ccccc1)c1nnnn1C` [Example 184], the log p is 5.62^[b].
Regarding `Cn1nnnc1C(=NOCc1cccc(C#CCCCCCl)n1)c1ccccc1` [Example 211], the log p is 3.99^[b].
On to `CCCCOc1ccc(C#Cc2nc(CON=C(c3ccccc3)c3nnnn3C)cs2)cc1` [Example 258], for which the log p was 5.44^[b].
Regarding `Cn1nnnc1C(=NOCc1cccc(C#CCCO)n1)c1ccccc1` [Example 253], the log p was 2.23^[b].
On the same count and under the same terms, the value for `CCc1ccc(C#Cc2cccc(CON=C(c3ccccc3)c3nnnn3C)n2)cc1` [Example 230] was 4.81^[b].
Regarding `COc1ccc(CON=C(c2ccccc2)c2nnnn2C)nc1C#CCCCC#N` [Example 135], the log p was 2.82^[b].
On to `Cc1sc(C#CCCc2ccccc2)nc1CON=C(c1ccccc1)c1nnnn1C` [Example 187], for which the log p is 4.65^[b].
With `Cn1nnnc1C(=NOCc1csc(C#Cc2ccccc2F)n1)c1ccccc1` [Example 260], the log p was 4.15^[b].
Take `CCCCOc1ccc(C#Cc2cccc(CON=C(c3ccccc3)c3nnnn3C)n2)cc1` [Example 226]: the log p is 5.29^[b].
As for `Cn1nnnc1C(=NOCc1cccc(C#Cc2ccc(Oc3ccccc3)cc2)n1)c1ccccc1` [Example 234], the log p was 5.08^[b].
Still for that read-out and setting: next, `CCCCC#Cc1nc(CON=C(c2cccc(F)c2)c2nnnn2C)cs1` [Example 149]: 4.51^[b].
Turning to `COc1cccc(C#Cc2cccc(CON=C(c3ccccc3)c3nnnn3C)n2)c1` [Example 221], the log p was 4.09^[b].
For `CCCCC#Cc1nc(CON=C(c2ccccc2)n2nnnc2C)cs1` [Example 164], the log p is 4.49^[b].
For `CCCC#Cc1nc(CON=C(c2cccc(F)c2)c2nnnn2C)cs1` [Example 151], the log p was 4.09^[b].
For the compound `Cn1nnnc1C(=NOCc1cccc(C#Cc2ccc(OC(F)(F)F)cc2)n1)c1ccccc1` [Example 220], the log p is 4.75^[b].
For `CCCC#Cc1nc(CON=C(c2ccccc2)n2nnnc2C)cs1` [Example 165], the log p was 4.04^[b].
On to `Cn1nnnc1C(=NOCc1cccc(C#CCCC2CCCCC2)n1)c1ccccc1` [Example 237], for which the log p is 5.62^[b].
As for `Cc1sc(C#CC(C)C)nc1CON=C(c1ccccc1)c1nnnn1C` [Example 189], the log p is 4.21^[b].
As to `Cc1nnnn1C(=NOCc1csc(C#CCCCC#N)n1)c1ccccc1` [Example 171], the log p was 3.02^[b].
Still for that read-out and setting: the value for `COc1ccc(C#Cc2nc(CON=C(c3ccccc3)c3nnnn3C)cs2)cc1` [Example 192] was 4.14^[b].
As for `Cc1sc(C#CC2CCCC2)nc1CON=C(c1ccccc1)c1nnnn1C` [Example 190], the log p is 4.75^[b].
As for `CCCCc1ccc(C#Cc2nc(CON=C(c3ccccc3)c3nnnn3C)cs2)cc1` [Example 202], the log p is 5.82^[b].
In the case of `Cn1nnnc1C(=NOCc1csc(C#CCC2CCCCC2)n1)c1cccc(F)c1` [Example 147], the log p was 5.42^[b].
For the compound `Cn1nnnc1C(=NOCc1cccc(C#CCOCc2ccccc2)n1)c1ccccc1` [Example 255], the log p was 3.96^[b].
For the compound `Cn1nnnc1C(=NOCc1cccc(NCC2CC2(Cl)Cl)n1)c1ccccc1` (stereo not drawn) [Example 205], the log p is 2.75^[b].

Still in this series, the particulars now being: reversed phase HPLC column, pH 2.7, log p, method [b]: LC-MS at pH 2.7, 0.1% formic acid in water and acetonitrile, linear gradient 10% to 95% acetonitrile.
Compound `Cn1nnnc1C(=NOCc1nc(Br)ccc1F)c1ccccc1` [Example 96, N-[(6-bromo-3-fluoro-pyridin-2-yl)methoxy]-1-(1-methyl-1H-tetrazol-5-yl)-1-phenylmethanimine] displayed a chromatographic logP of 3.27.

Staying with this series, now noted: reversed phase HPLC column, pH 2.7, log p, method [b]: LC-MS, pH 2.7 with 0.1% formic acid in water and acetonitrile (0.1% formic acid), linear gradient 10% to 95% acetonitrile.
For the compound `Cn1nnnc1C(=NOCc1csc(C#CCOCc2ccccc2)n1)c1ccccc1` [Example 263, N-({2-[3-(benzyloxy)prop-1-yn-1-yl]-1,3-thiazol-4-yl}methoxy)-1-(1-methyl-1H-tetrazol-5-yl)-1-phenylmethanimine], the chromatographic logP came to 4.04.

(Values after patent publication US8466176B2 (priority 2008, dated 2013).)
